Data published in BindingDB's records for PubMed 35707152 (Max Planck Institute of Colloids and Interfaces, 2022).

Assays:
[1] = Binding affinity to DC-SIGN ECD (66 to 404 residue) (unknown origin) expressed in Escherichia coli BL21 assessed as dissociation constant by STD reporter assay based NMR spectroscopy analysis
[2] = Binding affinity to N-terminal His-tagged DC-SIGN CRD (194 to 331 residues) (unknown origin) expressed in Escherichia coli BL21 assessed as dissociation constant by HSQC-NMR spectrum analysis

Compound	Kd [1] [µM]	Kd [2] [µM]
CN(C)C(=O)c1c[nH]c2ccc(F)cc2c1=O	2900	–
O=c1c(S(=O)(=O)c2ccccc2)c[nH]c2cc(F)ccc12	1900	–
CCOC(=O)c1cc(=O)c2cccc(C(=O)OCC)c2[nH]1	600	–
O=C(O)c1cnc2ccccc2c1O	2200	–
O=C(O)c1c[nH]c2ccc(S(=O)(=O)N3CCCCC3)cc2c1=O	500	–

More lines, now with the values ahead:

Kd [1] [µM]	Kd [2] [µM]	Compound
200	200	CCOC(=O)c1cnc2ccccc2c1O
500	400	CCOC(=O)c1cc(=O)c2cccc(F)c2[nH]1
300	400	CN(C)C(=O)c1c[nH]c2c(F)cccc2c1=O
400	500	CN(C)C(=O)c1c[nH]c2cc(N(C)C)ccc2c1=O
300	–	CN(C)C(=O)c1ccc2c(=O)c(S(=O)(=O)c3ccccc3)c[nH]c2c1
100	–	CCOC(=O)c1c[nH]c2c(C(=O)OCC)cccc2c1=O
300	–	CCOC(=O)c1c[nH]c2ccc(N(C)C)cc2c1=O
